Laboratory results published in patent US8143244B2, “Cyclopropyl fused indolobenzazepine HCV NS5B inhibitors” (Bristol-Myers Squibb Company, priority 2009, dated 2012).

Biological target: T1, HCV NS5B (Hepatitis C virus genotype 1b, UniProt Q9WMX2)
T1 construct: The protein was expressed with an 18 amino acid C-terminal truncation to enhance the solubility; made in house; host or cells: E. coli BL21(DE3)
Assay: HCV NS5B RdRp enzyme assay
Type: biochemical
Details: Table 1; HCV NS5B RdRp genotype 1b
Summary of the method: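 Modified format: 14 nM C-terminally truncated (Δ18) genotype 1b NS5B added to compound before template (0.2 nM polyA), 3H-UTP (0.6 μCi, 0.29 μM) and oligo-dT12 primer (20 nM) precaptured on SPA beads; 4 h, 30° C. Standard format: 28 nM enzyme, 6 nM template, 180 nM primer, 60 min, 30° C, SPA read-out. IC50 from seven concentrations, 2% DMSO.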

T1 sequence (Q9WMX2 2420-2992): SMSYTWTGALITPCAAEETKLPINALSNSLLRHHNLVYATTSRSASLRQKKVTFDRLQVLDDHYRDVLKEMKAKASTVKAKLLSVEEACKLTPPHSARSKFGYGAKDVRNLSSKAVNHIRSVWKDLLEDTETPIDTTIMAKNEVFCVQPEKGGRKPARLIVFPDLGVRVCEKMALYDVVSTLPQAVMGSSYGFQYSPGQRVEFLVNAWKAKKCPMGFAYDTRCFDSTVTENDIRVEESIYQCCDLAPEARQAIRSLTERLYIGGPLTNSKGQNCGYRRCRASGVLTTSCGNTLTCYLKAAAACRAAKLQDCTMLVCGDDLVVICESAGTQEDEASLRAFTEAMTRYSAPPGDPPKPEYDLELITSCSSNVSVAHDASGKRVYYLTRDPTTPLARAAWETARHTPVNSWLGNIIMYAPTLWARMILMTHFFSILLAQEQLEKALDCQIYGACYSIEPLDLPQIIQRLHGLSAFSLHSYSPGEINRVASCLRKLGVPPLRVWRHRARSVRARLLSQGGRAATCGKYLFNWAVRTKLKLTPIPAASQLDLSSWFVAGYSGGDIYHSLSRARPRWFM

Compound | IC50 [nM]
C=C(C)S(=O)(=O)NC(=O)c1ccc2c(C3CCCCC3)c3n(c2c1)C[C@@]1(C(=O)N2CC45COCC4(CN(C)C5)C2)C[C@H]1c1cc(OC)ccc1-3 (stereo partly shown) | 1.9 to 500
COc1ccc2c(c1)[C@@H]1C[C@]1(C(=O)N1CC34CNCC3(CN(C)C4)C1)Cn1c-2c(C2CCCCC2)c2ccc(C(=O)NS(=O)(=O)C(C)C)cc21 (stereo partly shown) | 1.9 to 500
COc1ccc2c(c1)C=C(C(=O)N1CC34CN(C)CC3(CN(C)C4)C1)Cn1c-2c(C2CCCCC2)c2ccc(C(=O)NS(=O)(=O)N(C)C)cc21 (stereo not shown) | 1.9 to 500
COc1ccc2c(c1)C1CC1(C(=O)N1CC34CNCC3(CN(C)C4)C1)Cn1c-2c(C2CCCCC2)c2ccc(C(=O)NS(=O)(=O)N(C)C)cc21 (stereo not shown) | 1.9 to 500
COc1ccc2c(c1)C1CC1(C(=O)N1CC34CN(C)CC3(CN(C)C4)C1)Cn1c-2c(C2CCCCC2)c2ccc(C(=O)NS(=O)(=O)N(C)C)cc21 (stereo not shown) | 1.9 to 500
COc1ccc2c(c1)[C@@H]1C[C@]1(C(=O)N1CC34CN(C)CC3(CN(C)C4)C1)Cn1c-2c(C2CCCCC2)c2ccc(C(=O)NS(=O)(=O)C(C)C)cc21 (stereo partly shown) | 1.9 to 500
COc1ccc2c(c1)[C@@H]1C[C@]1(C(=O)N1CC34CNCC3(COC4)C1)Cn1c-2c(C2CCCCC2)c2ccc(C(=O)NS(=O)(=O)C(C)C)cc21 (stereo partly shown) | 1.9 to 500
COc1ccc2c(c1)[C@@H]1C[C@]1(C(=O)N1CC34COCC3(CN(C)C4)C1)Cn1c-2c(C2CCCCC2)c2ccc(C(=O)NS(=O)(=O)C(C)C)cc21 (stereo partly shown) | 1.9 to 500
COc1ccc2c(c1)C1CC1(C(=O)N1CC34CNCC3(COC4)C1)Cn1c-2c(C2CCCCC2)c2ccc(C(=O)NS(=O)(=O)N(C)C)cc21 (stereo not shown) | 1.9 to 500
COc1ccc2c(c1)C=C(C(=O)N1CC34CNCC3(COC4)C1)Cn1c-2c(C2CCCCC2)c2ccc(C(=O)NS(=O)(=O)N(C)C)cc21 (stereo not shown) | 1.9 to 500
COc1ccc2c(c1)C=C(C(=O)N1CC34CNCC3(COC4)C1)Cn1c-2c(C2CCCCC2)c2ccc(C(=O)NS(=O)(=O)C3CC3)cc21 (stereo not shown) | 1.9 to 500
COc1ccc2c(c1)C=C(C(=O)N1CC34COCC3(CN(C)C4)C1)Cn1c-2c(C2CCCCC2)c2ccc(C(=O)NS(=O)(=O)N(C)C)cc21 (stereo not shown) | 1.9 to 500
COc1ccc2c(c1)C=C(C(=O)N1CC34COCC3(CN(C)C4)C1)Cn1c-2c(C2CCCCC2)c2ccc(C(=O)NS(=O)(=O)C3CC3)cc21 (stereo not shown) | 1.9 to 500
CCN1CC23COCC2(C1)CN(C(=O)[C@]12C[C@H]1c1cc(OC)ccc1-c1c(C4CCCCC4)c4ccc(C(=O)NS(=O)(=O)C(C)C)cc4n1C2)C3 (stereo partly shown) | 1.9 to 500
COc1ccc2c(c1)CC(C(=O)N1CC34CNCC3(COC4)C1)Cn1c-2c(C2CCCCC2)c2ccc(C(=O)NS(=O)(=O)C3CC3)cc21 (stereo not shown) | 1.9 to 500
COc1ccc2c(c1)CC(C(=O)N1CC34CN(C)CC3(CN(C)C4)C1)Cn1c-2c(C2CCCCC2)c2ccc(C(=O)NS(=O)(=O)N(C)C)cc21 (stereo not shown) | 1.9 to 500
COc1ccc2c(c1)C1CC1(C(=O)N1CC34COCC3(CN(C(C)=O)C4)C1)Cn1c-2c(C2CCCCC2)c2ccc(C(=O)NS(=O)(=O)CC(C)C)cc21 (stereo not shown) | 1.9 to 500
COc1ccc2c(c1)CC(C(=O)N1CC34CNCC3(CN(C)C4)C1)Cn1c-2c(C2CCCCC2)c2ccc(C(=O)NS(=O)(=O)C3CC3)cc21 (stereo not shown) | 1.9 to 500
COc1ccc2c(c1)CC(C(=O)N1CC34COCC3(CN(C)C4)C1)Cn1c-2c(C2CCCCC2)c2ccc(C(=O)NS(=O)(=O)C3CC3)cc21 (stereo not shown) | 1.9 to 500
COc1ccc2c(c1)[C@@H]1C[C@]1(C(=O)N1CC34COCC3(C1)CN(C1CC1)C4)Cn1c-2c(C2CCCCC2)c2ccc(C(=O)NS(=O)(=O)C(C)C)cc21 (stereo partly shown) | 2.5 to 500
COc1ccc2c(c1)[C@@H]1C[C@]1(C(=O)N1CC34COCC3(C1)N(C(C)=O)C4)Cn1c-2c(C2CCCCC2)c2ccc(C(=O)NS(=O)(=O)N(C)C)cc21 (stereo partly shown) | 1.9 to 500
COc1ccc2c(c1)C=C(C(=O)N1CC34COCC3(C1)N(C(C)=O)C4)Cn1c-2c(C2CCCCC2)c2ccc(C(=O)NS(=O)(=O)N(C)C)cc21 (stereo not shown) | 1.9 to 500
COc1ccc2c(c1)C1CC1(C(=O)N1CC34COCC3(CN(C)C4)C1)Cn1c-2c(C2CCCCC2)c2ccc(C(=O)NS(=O)(=O)N(C)C)cc21 (stereo not shown) [drawing 61] | 1.9 to 500
COc1ccc2c(c1)[C@@H]1C[C@]1(C(=O)N1CC34COCC3(C1)N(C(C)=O)C4)Cn1c-2c(C2CCCCC2)c2ccc(C(=O)NS(=O)(=O)C(C)C)cc21 (stereo partly shown) [drawing 73] | 1.9 to 500

Same assay, conditions: Table 2; HCV NS5B RdRp genotype 1b

Compound | IC50 [nM]
COc1ccc2c(c1)C1CC1(C(=O)N1CC34CNCC3(CN(C)C4)C1)Cn1c-2c(C2CCCCC2)c2ccc(C(=O)NS(=O)(=O)C3CC3)cc21 (stereo not shown) | 7.8
COc1ccc2c(c1)C1CC1(C(=O)N1CC34COCC3(CN(C)C4)C1)Cn1c-2c(C2CCCCC2)c2ccc(C(=O)NS(=O)(=O)N(C)C)cc21 (stereo not shown) [drawing 106] | 8.79
COc1ccc2c(c1)[C@@H]1C[C@]1(C(=O)N1CC34COCC3(C1)N(C(C)=O)C4)Cn1c-2c(C2CCCCC2)c2ccc(C(=O)NS(=O)(=O)C(C)C)cc21 (stereo partly shown) [drawing 109] | 3.1
COc1ccc2c(c1)[C@@H]1C[C@]1(C(=O)N1CC34COCC3(C1)N(C(C)=O)C4)Cn1c-2c(C2CCCCC2)c2ccc(C(=O)NS(=O)(=O)C(C)C)cc21 (stereo partly shown) [drawing 110] | 2.4
